# According to patent US5376634A, “Polypeptide compound and a process for preparation thereof” (Fujisawa Pharmaceutical Co., Ltd., priority 1990, dated 1994):
# Starred links: 1 amine or outer side, 2 acyl side, 3 side chain; linkers in the order of their positions; H or OH if unused. Positions of bridges follow the written chain, without caps; N, C: chain ends. Non-standard residues stand in square brackets, D forms with d. Residues, ends and D or L forms follow the SMILES beside them. *: point of attachment. hTyr(3S-OH,4S-OH,3'-OSO3H) = N[C@H](C(=O)O)[C@H](O)[C@@H](O)c1ccc(O)c(OS(=O)(=O)O)c1; Orn(4R-OH,5S-OH) = O=C([C@H](C[C@@H](O)[C@H](O)N[*:3])N[*:1])[*:2]; Pro(3S-OH,4S-Me) = C[C@H]1CN[C@H](C(=O)O)[C@H]1O; Benzoyl(4-octyloxy) = CCCCCCCCOc1ccc(C(=O)*)cc1; Gln(3R-OH) = NC(=O)C[C@@H](O)[C@H](N)C(=O)O; Hyp = O=C(O)[C@@H]1C[C@@H](O)CN1
# Key:
# ICR mice = assay: Acute toxicity, single intravenous injection; type: in vivo; conditions: ICR mice (female, 4 weeks old), dose of 500 mg/kg
# Method: The acute toxicity of the FR131535 substance was determined to ICR mice (female, 4 weeks old) by a single intravenous injection.
# [1] = Solubility (physico-chemical properties); type: physicochemical
smiles,measurement,setting,value
"CCCCCCCCOc1ccc(C(=O)N[C@H]2C[C@@H](O)[C@H](O)NC(=O)[C@@H]3[C@@H](O)[C@@H](C)CN3C(=O)[C@H]([C@H](O)CC(N)=O)NC(=O)[C@H]([C@H](O)[C@@H](O)c3ccc(O)c(OS(=O)(=O)O)c3)NC(=O)[C@@H]3C[C@@H](O)CN3C(=O)[C@H]([C@@H](C)O)NC2=O)cc1 [FR131535] ({Benzoyl(4-octyloxy)}-[Orn(4R-OH,5S-OH)]T[Hyp][hTyr(3S-OH,4S-OH,3'-OSO3H)][Gln(3R-OH)][Pro(3S-OH,4S-Me)]; lactam 1-C)",acute toxicity,ICR mice,No toxic symptom was observed
same,Solubility,[1]; acetone,slightly soluble
same,Solubility,[1]; methanol,soluble
same,Solubility,[1]; n-hexane,insoluble
same,Solubility,[1]; water,soluble
